Assay: Half life in rats after intravenous administration
Format: ADME, organism-based
Conditions: rat, in vivo

| Compound | half-life |
| --- | --- |
| O=C(c1ccccc1)c1cccc(NC(=O)[C@H]2OC(=O)N3[C@@H](c4cccnc4)SC[C@@H]23)c1 | 42 min |
| O=C(c1ccccc1)c1cccc(NC(=O)[C@@H]2CSC(c3cccnc3)N2)c1 (some centres not stated) | 60 min |
